One assay has as its target human orexin-1 receptor (Homo sapiens (Human), UniProt O43613). The assay can be described thus: In vitro assay: intracellular calcium measurements (FLIPR), antagonistic activity. To be noted: CHO cells, 3 nM orexin-A, marked values are geometric means of n = 2-6, read-out: IC50 OX1. The class given is cell-based.
The target in a further assay is human orexin-2 receptor (Homo sapiens (Human), UniProt O43614). The assay is described as above. In kind it is cell-based. The settings on record: CHO cells, 3 nM orexin-A, marked values are geometric means of n = 2-6, read-out: IC50 OX2.
Where [1] appears, read: compound incubation time of 10 min.

Like-named read-outs stand apart in the source and are kept apart here.

Chain of human orexin-2 receptor (O43614 whole entry): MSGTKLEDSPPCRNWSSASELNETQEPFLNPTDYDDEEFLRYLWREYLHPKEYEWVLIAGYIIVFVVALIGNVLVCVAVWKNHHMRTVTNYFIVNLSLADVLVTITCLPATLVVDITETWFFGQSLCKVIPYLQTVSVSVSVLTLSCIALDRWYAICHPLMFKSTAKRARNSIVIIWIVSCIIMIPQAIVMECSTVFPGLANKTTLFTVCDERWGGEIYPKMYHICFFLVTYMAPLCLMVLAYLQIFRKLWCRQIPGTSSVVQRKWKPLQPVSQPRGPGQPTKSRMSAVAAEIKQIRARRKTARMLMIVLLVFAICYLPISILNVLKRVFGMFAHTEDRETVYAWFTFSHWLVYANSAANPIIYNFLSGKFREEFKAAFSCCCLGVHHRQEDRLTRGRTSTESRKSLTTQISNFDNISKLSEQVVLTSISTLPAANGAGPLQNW
Chain of human orexin-1 receptor (O43613 whole entry): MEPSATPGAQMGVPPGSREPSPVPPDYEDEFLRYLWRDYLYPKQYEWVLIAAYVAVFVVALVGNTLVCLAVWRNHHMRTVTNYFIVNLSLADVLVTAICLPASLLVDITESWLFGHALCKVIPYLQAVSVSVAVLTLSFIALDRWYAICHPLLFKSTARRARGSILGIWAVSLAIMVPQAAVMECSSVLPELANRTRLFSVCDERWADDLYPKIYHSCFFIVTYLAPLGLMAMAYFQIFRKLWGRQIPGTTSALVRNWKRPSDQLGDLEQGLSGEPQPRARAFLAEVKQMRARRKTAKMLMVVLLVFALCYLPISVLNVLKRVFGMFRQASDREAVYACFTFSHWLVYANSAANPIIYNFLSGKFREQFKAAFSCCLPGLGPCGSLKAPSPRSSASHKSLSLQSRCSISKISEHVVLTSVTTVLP

Regarding `COc1cccc(OC)c1C1CCCCC(=O)N1Cc1ccccc1-c1ccccc1` (stereo not drawn) [Example 78, 1-([1,1′-biphenyl]-2-ylmethyl)-7-(2,6-dimethoxyphenyl)azepan-2-one], the IC50 (in general, the point on the concentration scale where inhibition reaches its midpoint) at human orexin-1 receptor (compound incubation 120 min) amounted to 0.323 µM; at human orexin-2 receptor (compound incubation 120 min) it was 0.806 µM.

`COc1cccc(OC)c1C1CCCCC(=O)N1Cc1ccc2ccccc2n1` (stereo not drawn) [Example 79, 7-(2,6-dimethoxyphenyl)-1-(quinolin-2-ylmethyl)azepan-2-one]: the values for the IC50 at human orexin-1 receptor (compound incubation 120 min) and at human orexin-2 receptor (compound incubation 120 min) were 0.021 µM and 0.082 µM, respectively.

Take `COc1cccc(OC)c1C1CCCCC(=O)N1Cc1cnc2ccccc2c1` (stereo not drawn) [Example 80, 7-(2,6-dimethoxyphenyl)-1-(quinolin-3-ylmethyl)azepan-2-one]: the results for the IC50 on human orexin-1 receptor (compound incubation 120 min) and on human orexin-2 receptor (compound incubation 120 min) were 0.715 µM and 1.04 µM, respectively.

With `COc1cccc(OC)c1C1CCCCC(=O)N1Cc1ccnc(-c2ccccc2)c1` (stereo not drawn) [Example 81, 7-(2,6-dimethoxyphenyl)-1-((2-phenylpyridin-4-yl)methyl)azepan-2-one], the concentration for half-maximal inhibition (IC50) turned out to be 0.007 µM at human orexin-1 receptor (compound incubation 120 min) and 0.058 µM on human orexin-2 receptor (compound incubation 120 min).

Regarding `COc1cccc(OC)c1C1CCCCC(=O)N1Cc1cccc(-c2ccccc2)n1` (stereo not drawn) [Example 82, 7-(2,6-dimethoxyphenyl)-1-((6-phenylpyridin-2-yl)methyl)azepan-2-one], the IC50 at human orexin-1 receptor (compound incubation 120 min) came out at 0.007 µM; on human orexin-2 receptor (compound incubation 120 min) it was 0.026 µM.

As to `COc1cccc(OC)c1C1CCCCC(=O)N1Cc1cccc(-c2ncccn2)c1` (stereo not drawn) [Example 83, 7-(2,6-dimethoxyphenyl)-1-(3-(pyrimidin-2-yl)benzyl)azepan-2-one], the IC50 on human orexin-1 receptor (compound incubation 120 min) is 0.003 µM; at human orexin-2 receptor (compound incubation 120 min) it was 0.019 µM.

`COc1cccc(OC)c1C1CCCCC(=O)N1Cc1cccc(-c2ccccn2)c1` (stereo not drawn) [Example 84, 7-(2,6-dimethoxyphenyl)-1-(3-(pyridin-2-yl)benzyl)azepan-2-one]: the IC50 at human orexin-1 receptor (compound incubation 120 min) came out at 0.003 µM; on human orexin-2 receptor (compound incubation 120 min), 0.007 µM.

Turning to `COc1cccc(OC)c1C1CCCCC(=O)N1Cc1cccc(-c2nccs2)c1` (stereo not drawn) [Example 85, 7-(2,6-dimethoxyphenyl)-1-(3-(thiazol-2-yl)benzyl)azepan-2-one], the IC50 amounted to 0.002 µM at human orexin-1 receptor (compound incubation 120 min) and 0.003 µM on human orexin-2 receptor (compound incubation 120 min).

For `COc1cccc(OC)c1C1CCCCC(=O)N1Cc1ccc2c(c1)c1ccccc1n2C` (stereo not drawn) [Example 86, 7-(2,6-dimethoxyphenyl)-1-((9-methyl-9H-carbazol-3-yl)methyl)azepan-2-one], the IC50 on human orexin-1 receptor (compound incubation 120 min) came to 0.045 µM; at human orexin-2 receptor (compound incubation 120 min), 0.071 µM.

Consider `COc1cccc(OC)c1C1CCCCC(=O)N1Cc1cccc(-c2cccnc2)c1` (stereo not drawn) [Example 87, 7-(2,6-dimethoxyphenyl)-1-(3-(pyridin-3-yl)benzyl)azepan-2-one], for which the IC50 at human orexin-1 receptor (compound incubation 120 min) came out at 0.021 µM; on human orexin-2 receptor (compound incubation 120 min) it was 0.046 µM.

Regarding `COc1cccc(OC)c1C1CCCCC(=O)N1Cc1cccc(N2CCCCC2)c1` (stereo not drawn) [Example 88, 7-(2,6-dimethoxyphenyl)-1-(3-(piperidin-1-yl)benzyl)azepan-2-one], the values for the IC50 on human orexin-1 receptor (compound incubation 120 min) and at human orexin-2 receptor (compound incubation 120 min) were 0.012 µM and 0.058 µM, respectively.

Regarding `COc1cccc(OC)c1C1CCCCC(=O)N1Cc1cnc(OC(F)F)c(Cl)c1` (stereo not drawn) [Example 89, 1-((5-chloro-6-(difluoromethoxy)pyridin-3-yl)methyl)-7-(2,6-dimethoxyphenyl)azepan-2-one], the IC50 amounted to 0.385 µM on human orexin-1 receptor (compound incubation 120 min) and 0.085 µM on human orexin-2 receptor (compound incubation 120 min).

As to `COc1cccc(OC)c1C1CCCCC(=O)N1Cc1ccc2oc3ccccc3c2c1` (stereo not drawn) [Example 90, 1-(dibenzo[b,d]furan-2-ylmethyl)-7-(2,6-dimethoxyphenyl)azepan-2-one], the IC50 at human orexin-1 receptor (compound incubation 120 min) came to 0.001 µM; on human orexin-2 receptor (compound incubation 120 min) it was 0.003 µM.

In the case of `COc1cccc(OC)c1C1CCCCC(=O)N1Cc1cccc(-c2csc(C)n2)c1` (stereo not drawn) [Example 91, 7-(2,6-dimethoxyphenyl)-1-(3-(2-methylthiazol-4-yl)benzyl)azepan-2-one], the IC50 was 0.001 µM on human orexin-1 receptor (compound incubation 120 min) and 0.003 µM at human orexin-2 receptor (compound incubation 120 min).

As for `COc1cccc(OC)c1C1CCCCC(=O)N1Cc1cncc(-c2ccccc2)c1` (stereo not drawn) [Example 92, 7-(2,6-dimethoxyphenyl)-1-((5-phenylpyridin-3-yl)methyl)azepan-2-one], the values for the IC50 at human orexin-1 receptor (compound incubation 120 min) and on human orexin-2 receptor (compound incubation 120 min) were 1.06 µM and 0.455 µM, respectively.

As for `COc1cccc(OC)c1C1CCCCC(=O)N1Cc1cccc(N2CCCC2)c1` (stereo not drawn) [Example 93, 7-(2,6-dimethoxyphenyl)-1-(3-(pyrrolidin-1-yl)benzyl)azepan-2-one], the IC50 at human orexin-1 receptor (compound incubation 120 min) was 0.003 µM; on human orexin-2 receptor (compound incubation 120 min), 0.016 µM.

`COc1cccc(OC)c1C1CCCCC(=O)N1Cc1cnn(-c2ccccc2)c1` (stereo not drawn) [Example 94, 7-(2,6-dimethoxyphenyl)-1-((1-phenyl-1H-pyrazol-4-yl)methyl)azepan-2-one]: the IC50 came out at 0.121 µM at human orexin-1 receptor (compound incubation 120 min) and 0.378 µM on human orexin-2 receptor (compound incubation 120 min).

Consider `COc1cccc(OC)c1C1CCCCC(=O)N1Cc1ccc2sc(C)nc2c1` (stereo not drawn) [Example 95, 7-(2,6-dimethoxyphenyl)-1-((2-methylbenzo[d]thiazol-5-yl)methyl)azepan-2-one], for which the IC50 at human orexin-1 receptor (compound incubation 120 min) was 0.008 µM; on human orexin-2 receptor (compound incubation 120 min), 0.029 µM.

For the molecule `COc1cccc(OC)c1C1CCCCC(=O)N1Cc1cccc(-c2ccncc2)c1` (stereo not drawn) [Example 96, 7-(2,6-dimethoxyphenyl)-1-(3-(pyridin-4-yl)benzyl)azepan-2-one], the IC50 at human orexin-1 receptor (compound incubation 120 min) is 0.016 µM; at human orexin-2 receptor (compound incubation 120 min), 0.085 µM.

In the case of `COc1cccc(OC)c1C1CCCCC(=O)N1Cc1cccc(-n2cccn2)c1` (stereo not drawn) [Example 97, 1-(3-(1H-pyrazol-1-yl)benzyl)-7-(2,6-dimethoxyphenyl)azepan-2-one], the IC50 at human orexin-1 receptor (compound incubation 120 min) was 0.005 µM; at human orexin-2 receptor (compound incubation 120 min) it was 0.02 µM.

`COc1cccc(OC)c1C1CCCCC(=O)N1Cc1csc(-c2ccccc2)n1` (stereo not drawn) [Example 98, 7-(2,6-dimethoxyphenyl)-1-((2-phenylthiazol-4-yl)methyl)azepan-2-one]: the IC50 on human orexin-1 receptor (compound incubation 120 min) and at human orexin-2 receptor (compound incubation 120 min) was 0.006 µM each time.

For `COc1cccc(OC)c1C1CCCCC(=O)N1Cc1cccc(-c2cncs2)c1` (stereo not drawn) [Example 99, 7-(2,6-dimethoxyphenyl)-1-(3-(thiazol-5-yl)benzyl)azepan-2-one], the IC50 came out at 0.007 µM at human orexin-1 receptor (compound incubation 120 min) and 0.034 µM on human orexin-2 receptor (compound incubation 120 min).

Consider `COc1cccc(OC)c1C1CCCCC(=O)N1Cc1cccc(-c2ncc(C)s2)c1` (stereo not drawn) [Example 100, 7-(2,6-dimethoxyphenyl)-1-(3-(5-methylthiazol-2-yl)benzyl)azepan-2-one], for which the IC50 on human orexin-1 receptor (compound incubation 120 min) came to 0.001 µM; at human orexin-2 receptor (compound incubation 120 min), 0.003 µM.

On to `COc1cccc(OC)c1C1CCCCC(=O)N1Cc1cccc(-n2nccn2)c1` (stereo not drawn) [Example 101, 1-(3-(2H-1,2,3-triazol-2-yl)benzyl)-7-(2,6-dimethoxyphenyl)azepan-2-one], for which the IC50 is 0.003 µM at human orexin-1 receptor (compound incubation 120 min) and 0.033 µM on human orexin-2 receptor (compound incubation 120 min).

For `COc1cccc(OC)c1C1CCCCC(=O)N1Cc1cccc(-c2cscn2)c1` (stereo not drawn) [Example 102, 7-(2,6-dimethoxyphenyl)-1-(3-(thiazol-4-yl)benzyl)azepan-2-one], the IC50 worked out at 0.006 µM on human orexin-1 receptor (compound incubation 120 min) and 0.019 µM at human orexin-2 receptor (compound incubation 120 min).

As for `COc1cccc(OC)c1C1CCCCC(=O)N1Cc1ccnc(-n2cccn2)c1` (stereo not drawn) [Example 103, 1-((2-(1H-pyrazol-1-yl)pyridin-4-yl)methyl)-7-(2,6-dimethoxyphenyl)azepan-2-one], the IC50 on human orexin-1 receptor (compound incubation 120 min) came to 0.008 µM; at human orexin-2 receptor (compound incubation 120 min) it was 0.086 µM.

As for `COc1cccc(OC)c1C1CCCCC(=O)N1Cc1cccc(-n2cccn2)n1` (stereo not drawn) [Example 104, 1-((6-(1H-pyrazol-1-yl)pyridin-2-yl)methyl)-7-(2,6-dimethoxyphenyl)azepan-2-one], the IC50 on human orexin-1 receptor (compound incubation 120 min) amounted to 0.038 µM; at human orexin-2 receptor (compound incubation 120 min) it was 0.429 µM.

Turning to `COc1cccc(OC)c1C1CCCCC(=O)N1Cc1ccc2nc(C)sc2c1` (stereo not drawn) [Example 105, 7-(2,6-dimethoxyphenyl)-1-((2-methylbenzo[d]thiazol-6-yl)methyl)azepan-2-one], the IC50 at human orexin-1 receptor (compound incubation 120 min) amounted to 0.155 µM; on human orexin-2 receptor (compound incubation 120 min), 0.258 µM.

As to `COc1cccc(OC)c1C1CCCCC(=O)N1Cc1cccc(-c2ccccn2)c1F` (stereo not drawn) [Example 106, 7-(2,6-dimethoxyphenyl)-1-(2-fluoro-3-(pyridin-2-yl)benzyl)azepan-2-one], the results for the IC50 at human orexin-1 receptor (compound incubation 120 min) and on human orexin-2 receptor (compound incubation 120 min) were 0.014 µM and 0.06 µM, respectively.

`COc1cccc(OC)c1C1CCCCC(=O)N1Cc1ccc(F)c(-c2ccccn2)c1` (stereo not drawn) [Example 107, 7-(2,6-dimethoxyphenyl)-1-(4-fluoro-3-(pyridin-2-yl)benzyl)azepan-2-one]: the values for the IC50 at human orexin-1 receptor (compound incubation 120 min) and at human orexin-2 receptor (compound incubation 120 min) were 0.004 µM and 0.022 µM, respectively.

For the molecule `COc1cc(OC)c(C2CCC(=O)N2Cc2ccc(OC(F)(F)F)cc2)c(OC)c1` (stereo not drawn) [Example 108, 1-(4-(trifluoromethoxy)benzyl)-5-(2,4,6-trimethoxyphenyl)pyrrolidin-2-one], the IC50 amounted to 1.93 µM at human orexin-1 receptor (setting [1]) and 0.271 µM on human orexin-2 receptor (setting [1]).

For the molecule `COc1cccc(OC)c1C1CCC(=O)N1Cc1cnc2ccccc2c1` (stereo not drawn) [Example 109, 5-(2,6-dimethoxyphenyl)-1-(quinolin-3-ylmethyl)pyrrolidin-2-one], the IC50 at human orexin-1 receptor (setting [1]) turned out to be 0.227 µM; at human orexin-2 receptor (setting [1]), 0.044 µM.

Take `COc1cccc(OC)c1C1CCC(=O)N1Cc1ccc2ccccc2n1` (stereo not drawn) [Example 110, 5-(2,6-dimethoxyphenyl)-1-(quinolin-2-ylmethyl)pyrrolidin-2-one]: the results for the IC50 at human orexin-1 receptor (setting [1]) and at human orexin-2 receptor (setting [1]) were 0.409 µM and 0.136 µM, respectively.

With `COc1cccc(OC)c1C1CCC(=O)N1Cc1ccc2ccccc2c1` (stereo not drawn) [Example 111, 5-(2,6-dimethoxyphenyl)-1-(naphthalen-2-ylmethyl)pyrrolidin-2-one], the results for the IC50 on human orexin-1 receptor (setting [1]) and on human orexin-2 receptor (setting [1]) were 0.168 µM and 0.113 µM, respectively.

With `COc1cccc(OC)c1C1CCC(=O)N1Cc1cnc(OC(F)F)c(Cl)c1` (stereo not drawn) [Example 112, 1-((5-chloro-6-(difluoromethoxy)pyridin-3-yl)methyl)-5-(2,6-dimethoxyphenyl)pyrrolidin-2-one], the values for the IC50 at human orexin-1 receptor (setting [1]) and on human orexin-2 receptor (setting [1]) were 0.646 µM and 0.107 µM, respectively.

`COc1cccc(OC)c1C1CCC(=O)N1Cc1cccc(-c2ccccc2)c1` (stereo not drawn) [Example 113, 1-([1,1′-biphenyl]-3-ylmethyl)-5-(2,6-dimethoxyphenyl)pyrrolidin-2-one]: the IC50 is 0.029 µM at human orexin-1 receptor (compound incubation 120 min) and 0.034 µM on human orexin-2 receptor (compound incubation 120 min).

Values taken from US9242970B2 (ACTELION PHARMACEUTICALS LTD., priority 2010, dated 2016).
